# Laboratory results: patent publication US6281356A, “Substituted pyrroles” (Hoffmann-La Roche Inc., priority 2000, dated 2001)
# pIC50: −log10 of the molar value.
# Test system: epithelial breast carcinoma cell line (MDAMB-435)
# Experiment: Antiproliferative activity (growth inhibition, MTT), epithelial breast carcinoma cell line MDAMB-435
# Type: cell-based
# Conditions: Homo sapiens, MDA-MB-435, 120 h, 5 days post drug addition, 0.1% DMSO, read-out: IC50 (growth inhibition of MDAMB-435 cells)
# Protocol: The epithelial breast carcinoma cell line (MDAMB-435) was purchased from ATCC (American Type Cell Culture Collection) and was grown in culture medium as recommended by ATCC. For analysis of the effect of various compounds of formula I on the growth of these cells, the cells were plated at a concentration of 1500 cells/well in a 96 well tissue culture plate ("test plate"). The day after the cells were plated, the compounds to be analyzed were dissolved in 100% DMSO (dimethyl sulfoxide) to yield at 10 mM stock solution. Each compound was diluted in H2 O to 1 mM and was added to triplicate wells in the first row of a 96 well master plate containing medium to yield a final concentration of 40 μM. The compounds were then serially diluted in medium in the "master plate". The diluted compound(s) were then transferred to test plates containing cells. A row of vehicle "control cells" received DMSO. The final concentration of DMSO in each well was 0.1%. 5 days post drug addition, the plate was analyzed as described below.
# MTT (3-(4-5 methyl thiazole-2-yl)-2,5-diphenyl tetrazolium bromide; thiazolyl blue) was added to each well to yield a final concentration of 1 mg/ml. The plate was then incubated at 37° C. for 21/2-3 hours. The MTT-containing medium was then removed and 50 μl of 100% ethanol was added to each well to dissolve the formazan. The absorbences were then read using an automated plate reader (Bio-tek microplate reader). IC50 s were calculated using the Reed and Munsch equation, see Am. J. Hygiene Vol. 27 pgs. 493-497,1938.
row,SMILES,pIC50
1,"Cn1cc(C2=C(c3cn(C)c4cc(N5CCOCC5)ccc34)C(=O)NC2=O)c2ccccc21 [Example 11, 3-(1-Methyl-1H-indol-3-yl)-4-(1-methyl-6-morpholin-4-yl-1H-indol-3-yl)pyrrole 2,5-dione]",7.70
2,"Cn1cc(C2=C(c3cn(C)c4cc([N+](=O)[O-])ccc34)C(=O)NC2=O)c2ccc(N3CCOCC3)cc21 [Example 12a, 3-(1-Methyl-6-morpholin-4-yl-1H-indol-3-yl)-4-(1-methyl-6-nitro-1H-indol-3-yl)pyrrole-2,5-dione]",> 8.00
3,"Cc1ccc2c(C3=C(c4cn(C)c5cc(N6CCOCC6)ccc45)C(=O)NC3=O)cn(C)c2c1 [Example 12b, 3(1,6-Dimethyl-1H-indol-3-yl)-4-(1-methyl-6-morpholin-4-yl-1H-indol-3-yl)pyrrole-2,5-dione]",> 8.00
4,"Cn1cc(C2=C(c3c[nH]c4ccccc34)C(=O)NC2=O)c2ccc(N3CCOCC3)cc21 [Example 12c, 3-(1H-Indol-3-yl)-4-(1-methyl-6-morpholin-4-yl-1H-indol-3-yl)pyrrole-2,5-dione]",7.15
5,"Cn1cc(C2=C(c3cn(C)c4cc([N+](=O)[O-])ccc34)C(=O)NC2=O)c2ccc(N3CCCC3)cc21 [Example 12d, 3-(1-Methyl-6-nitro-1H-indol-3-yl)-4-(1-methyl-6-pyrrolidin-1-yl-1H-indol-3-yl)pyrrole-2,5-dione]",8.70
6,"Cn1cc(C2=C(c3c[nH]c4cc(N5CCCC5)ccc34)C(=O)NC2=O)c2ccc(F)cc21 [Example 12e, 3-(6-Fluoro-1-methyl-1H-indol-3-yl)-4-(6-pyrrolidin-1-yl-1H-indol-3-yl)pyrrole-2,5-dione]",8.52
7,"Cn1cc(C2=C(c3c[nH]c4cc(N5CCCC5)ccc34)C(=O)NC2=O)c2ccc(Cl)cc21 [Example 12f, 3-(6-Chloro-1-methyl-1H-indol-3-yl)-4-(6-pyrrolidin-1-yl-1H-indol-3-yl)pyrrole-2,5-dione]",> 8.52
8,"COCn1cc(C2=C(c3cn(C)c4cc([N+](=O)[O-])ccc34)C(=O)NC2=O)c2ccc(N3CCCC3)cc21 [Example 12g, 3-(1-Methoxymethyl-6-pyrrolidin-1-yl-1H-indol-3-yl)-4-(1-methyl-6-nitro-1H-indol-3-yl)pyrrole-2,5-dione]",7.70
9,"Cn1cc(C2=C(c3c[nH]c4cc(N5CCCC5)ccc34)C(=O)NC2=O)c2ccc([N+](=O)[O-])cc21 [Example 12h, 3-(1-Methyl-6-nitro-1H-indol-3-yl)-4-(6-pyrrolidin-1-yl-1H-indol-3-yl)pyrrole-2,5-dione]",8.70
10,"Cn1cc(C2=C(c3c[nH]c4ccccc34)C(=O)NC2=O)c2ccc(N3CCCC3)cc21 [Example 12i, 3-(1H-indol-3-yl)-4-(1-methyl-6-pyrrolidin-1-yl-1H-indol-3-yl)-pyrrole-2,5-dione]",7.10
11,"Cn1cc(C2=C(c3cn(C)c4cc(N5CCCC5)ccc34)C(=O)NC2=O)c2ccccc21 [Example 12j, 3-(1-Methyl-1H-indol-3-yl)-4-(1-methyl-6-pyrrolidin-1-yl-1H-indol-3-yl)pyrrole-2,5-dione]",7.22
12,"CN1CCN(c2ccc3c(C4=C(c5cn(C)c6ccccc56)C(=O)NC4=O)cn(C)c3c2)CC1 [Example 12k, 3-(1-Methyl-1H-indol-3-yl)-4-[1-methyl-6-(4-methyl-piperazin-1-yl)-1H-indol-3-yl]pyrrole-2,5-dione]",5.47
13,"Cn1cc(C2=C(c3cn(C)c4cc(N5CCCCC5)ccc34)C(=O)NC2=O)c2ccccc21 [Example 12l, 3-(1-Methyl-1H-indol-3-yl)-4-(1-methyl-6-piperidin-1-yl-1H-indol-3-yl)pyrrole-2,5-dione]",6.64
14,"COCn1cc(C2=C(c3cn(C)c4cc(F)ccc34)C(=O)NC2=O)c2ccc(N3CCOCC3)cc21 [Example 12m, 3-(6-Fluoro-1-methyl-1H-indol-3-yl)-4-(1-methoxymethyl-6-morpholin-4-yl-1H-indol-3-yl)pyrrole-2,5-dione]",6.77
15,"Cn1cc(C2=C(c3c[nH]c4cc(N5CCOCC5)ccc34)C(=O)NC2=O)c2ccc(F)cc21 [Example 12n, 3-(6-Fluoro-1-methyl-1H-indol-3-yl)-4-(6-morpholin-4-yl-1H-indol-3-yl)-pyrrole-2,5-dione]",7.92
16,"Cn1cc(C2=C(c3c[nH]c4cc(N5CCOCC5)ccc34)C(=O)NC2=O)c2ccccc21 [Example 12o, 3-(1-Methyl-1H-indol-3-yl)-4-(6-morpholin-4-yl-1H-indol-3-yl)pyrrole-2,5-dione]",7.43

row,SMILES,pIC50
1,"Cn1cc(C2=C(c3cn(C)c4cc(N5CCOCC5)ccc34)C(=O)NC2=O)c2ccc(C#N)cc21 [Example 13, 1-Methyl-3-[4-(1-methyl-6-morpholin-4-yl-1H-indol-3-yl)-2,5-dioxo-2,5-dihydro-1H-pyrrole-3-yl]-1H-indole-6-carbonitrile]",8.40
2,"COc1ccc2c(C3=C(c4cn(C)c5cc(N6CCOCC6)ccc45)C(=O)NC3=O)cn(C)c2c1 [Example 14a, 3-(6-Methoxy-1-methyl-1H-indol-3-yl)-4-(1-methyl-6-morpholin-4-yl-1H-indol-3-yl)pyrrole-2,5-dione]",7.70
3,"Cn1cc(C2=C(c3cn(C)c4cc(N5CCOCC5)ccc34)C(=O)NC2=O)c2ccc(F)cc21 [Example 14b, 3-(6-Fluoro-1-methyl-1H-indol-3-yl)-4-(1-methyl-6-morpholin-4-yl-1H-indol-3-yl)pyrrole-2,5-dione]",7.52
4,"Cn1cc(C2=C(c3cn(C)c4cc(N5CCOCC5)ccc34)C(=O)NC2=O)c2ccc(Cl)cc21 [Example 14c, 3-(6-Chloro-1-methyl-1H-indol-3-yl)-4-(1-methyl-6-morpholin-4-yl-1H-indol-3-yl)pyrrole-2,5-dione]",8.70
5,"Cn1cc(C2=C(c3cn(C)c4cc(N5CCOCC5)ccc34)C(=O)NC2=O)c2ccc(Br)cc21 [Example 14d, 3-(6-Bromo-1-methyl-1H-indol-3-yl)-4-(1-methyl-6-morpholin-4-yl-1H-indol-3-yl)pyrrole-2,5-dione]",8.52
6,"Cn1cc(C2=C(c3cn(C)c4cc(C(F)(F)F)ccc34)C(=O)NC2=O)c2ccc(N3CCOCC3)cc21 [Example 14e, 3-(1-Methyl-6-morpholin-4-yl-1H-indol-3-yl)-4-(1-methyl-6-trifluoromethyl-1H-indol-3-yl)pyrrole-2,5-dione]",7.30
7,"Cn1cc(C2=C(c3cn(C)c4cc(N5CCCC5)ccc34)C(=O)NC2=O)c2ccc(Br)cc21 [Example 14f, 3-(6-Bromo-1-methyl-1H-indol-3-yl)-4-(1-methyl-6-pyrrolidin-1-yl-1H-indol-3-yl)pyrrole-2,5-dione]",8.30
8,"COc1ccc2c(C3=C(c4cn(C)c5cc(N6CCCC6)ccc45)C(=O)NC3=O)cn(C)c2c1 [Example 14g, 3-(6-Methoxy-1-methyl-1H-indol-3-yl)-4-(1-methyl-6-pyrrolidin-1-yl-1H-indol-3-yl)pyrrole-2,5-dione]",7.40
9,"Cn1cc(C2=C(c3cn(C)c4cc(C(F)(F)F)ccc34)C(=O)NC2=O)c2ccc(N3CCCC3)cc21 [Example 14h, 3-(1-Methyl-6-pyrrolidin-1-yl-1H-indol-3-yl)-4-(1-methyl-6-trifuloromethyl-1H-indol-3-yl)pyrrole-2,5-dione]",7.10
10,"Cn1cc(C2=C(c3cn(C)c4cc(N5CCCC5)ccc34)C(=O)NC2=O)c2ccc(Cl)cc21 [Example 14i, 3-(6-Chloro-1-methyl-1H-indol-3-yl)-4-(1-methyl-6-pyrrolidin-1-yl-1H-indol-3-yl)pyrrole-2,5-dione]",8.00
11,"Cn1cc(C2=C(c3cn(C)c4cc(N5CCCC5)ccc34)C(=O)NC2=O)c2ccc(C#N)cc21 [Example 15, 1-Methyl-3-[4-(1-methyl-6-pyrrolidin-1-yl-1H-indol-3-yl)-2,5-dioxo-2,5dihydro-1H-pyrrole-3-yl]-1H-indole-6-carbonitrile]",> 8.00
12,"COCc1ccc2c(C3=C(c4cn(C)c5cc(N6CCOCC6)ccc45)C(=O)NC3=O)cn(C)c2c1 [Example 16, 3-(6-methoxymethyl-1-methyl-1H-indol-3-yl)-4-(1-methyl-6-morpholin-4-yl-1H-indol-3-yl)pyrrole-2,5-dione]",5.93
13,"Cn1cc(C2=C(c3cn(C)c4cc([N+](=O)[O-])ccc34)C(=O)NC2=O)c2ccc(OCCn3ccnc3)cc21 [Example 17, 3-[6-(2-Imidazol-1-yl-ethoxy)-1-methyl-1H-indol-3-yl]-4-(1-methyl-6-nitro-1H-indol-3-yl)pyrrole-2,5-dione]",7.15
14,"Cn1cc(C2=C(c3cn(C)c4cc([N+](=O)[O-])ccc34)C(=O)NC2=O)c2ccc(-c3cncnc3)cc21 [Example 18, 3-(1-Methyl-6-nitro-1H-indol-3-yl)-4-(1-methyl-6-pyrimidin-5-yl-1H-indol-3-yl)pyrrole-2,5-dione]",7.30
15,"Cn1cc(C2=C(c3cn(C)c4cc(-c5cncnc5)ccc34)C(=O)NC2=O)c2ccccc21 [Example 19, 3-(1-Methyl-1-indol-3-yl)-4-(1-methyl-6-pyrimidin-5-yl-1H-indol-3-yl)pyrrole-2,5-dione]",7.10
